Data as given in US6713517B1, “Use of aryl N-substituted carboxamides directly and as radio-and chemosensitizers for killing tumor and cancer cells and novel compounds for such use” (OXiGENE, Inc., priority 1996, dated 2004).
Entries after “also recorded” stand apart in the source; their conditions may differ.

Columns and labels:
[1] = Solubility in water of the hydrochloride salt; type: physicochemical; conditions: amorphous hydrochloride salt
Procedure: Preparation of the hydrochloride salt of N-(2-diethylamino-ethyl)nicotinamide. The free base [compound (3)] was dissolved in n-propanol+n-butanol+0.1 M HClaq (2:1:1, v/v/v). An aliquate of 2 M aqueous […] was added to adjust the pH to 2. The solution was concentrated and the resulting amorphous material was dried under vacuum overnight.

[2] = test system: human lymphocytes (purified mononuclear leukocytes); type: cell-based; conditions: for radiosensitization of cytotoxicity by apoptosis: 1 Gy radiation plus drug (100 μM MCA or 1000 μM others), FIG. 6B; for induction of / effect on apoptotic cytotoxicity: drug alone (FIG. 6A) or with 1 Gy radiation (FIG. 6B)
Procedure: Evaluation of radiosensitization by apoptotic cytotoxicity. […] The cells were first exposed to the drugs for 30 minutes at 37° C. before being given 1 Gy irradiation (^137cesium source, Scanditronix, 1.56 Gy/min). The apoptotic and necrotic cells were analyzed and scored by phase contrast morphological criteria. Apoptotic cells have condensed chromatin and are trypan blue negative whereas necrotic cells stain blue with trypan blue.

Row | SMILES | solubility in water [1] | radiosensitization of cytotoxicity by apoptosis [2] | induction of / effect on apoptotic cytotoxicity [2]
1 | CCN(CC)CCNC(=O)c1cccnc1.Cl [N-(2-diethylaminoethyl) nicotinamide HCl] | readily soluble in water |  | 
2 | CCN(CC)CCNC(=O)c1cc(Cl)c(N)cc1OC [metoclopramide, 4-amino-5-chloro-N-(2-diethylamino-ethyl)-2-methoxybenzamide] |  | having the properties to sensitize apoptotic cell killing by radiation; also recorded: effective | capable of inducing apoptotic cytotoxicity
3 | NC(=O)c1cccnc1 [nicotinamide] |  | not and does not sensitize cytotoxicity by apoptosis | not able to affect cytotoxicity by apoptosis
